Data set [1] in a line: Solubility in water. Format: physicochemical. Here is the method:
Sequoyitol was dissolved in water and sterilized by filtration. Solutions for injection were prepared according to the operation procedure of solutions for injection. Powder for injection was prepared according to the operation procedure of lyophilized powder for injection.

Data set [2] concerns diabetes models. The following applies: sequoyitol isolated from Taxus chinensis; cited from earlier work.
For data set [3] the following is noted: sequoyitol isolated from Taxus chinensis; cited from earlier work.
Data set [4] has as its system elevated level of blood glucose induced by alloxan in mice. The experiment in a line: Effect on the elevated level of blood glucose induced by alloxan in mice. The conditions noted are these: 75 mg/kg via gavage, 7 days. The data set is classed as in vivo. Here is the method:
80 male mice weighed 22˜25 g were used. 20 mice were randomly taken as the blank group. Others were injected intravenously with alloxan via caudal vein at a dose of 65 mg/kg body weight, and then modeled according to established methods. The mice were divided into 3 groups according to their level of blood glucose, in which 2 groups were administered via gavage with 60 mg/kg of the Nephrolepis auriculata extract, 75 mg/kg of phenformin (positive control) respectively for consecutive 7 days, in a volume of 0.1 ml/10 g body weight. The same volume of distilled water was administered to the blank group and the control group. Blood glucose was determined using glucose oxidase method.

For the compound `CO[C@H]1[C@H](O)[C@@H](O)[C@@H](O)[C@@H](O)[C@@H]1O` [Sequoyitol, sequoyitol], the Solubility in water entry in data set [1] was “well soluble”. In addition, in data set [2], the Absorption of glucose result is “inhibits”, the “Breakdown of hepatic glycogen” value is on record as “inhibits” and the “High glycemia in diabetes models” value is “remarkably decreases”. For the same compound, the Toxicity result in data set [3] is on record as “very low toxicity”.
For the compound `[H]/N=C(/N)N/C(=N/[H])NCCc1ccccc1` [phenformin], the “Decrease of hyperglycemia induced by alloxan vs control group” value in data set [4] is 152.8 mg/dL.
